Measured values taken from US7951811B2, “Pyrrolo[2,3-D]pyrimidine derivatives substituted with a cyclic amino group” (Taisho Pharmaceutical Co., Ltd., priority 2004, dated 2011).

What follows are compounds tested against T1, δ receptor (delta opioid receptor) (Rattus norvegicus, UniProt P33533) (assay: δ receptor binding test (3H-DPDPE displacement)). Conditions: rat brain membranes, 3H-DPDPE 1.5 nM, 25° C., 70 minutes; read-out: IC50 (concentration at which binding of 3H-DPDPE is inhibited by 50%).
T1 construct: Rat Brain Membranes were Used as a Receptor Preparation; from tissue; host or cells: rat brain membranes
T1 sequence (P33533 whole entry): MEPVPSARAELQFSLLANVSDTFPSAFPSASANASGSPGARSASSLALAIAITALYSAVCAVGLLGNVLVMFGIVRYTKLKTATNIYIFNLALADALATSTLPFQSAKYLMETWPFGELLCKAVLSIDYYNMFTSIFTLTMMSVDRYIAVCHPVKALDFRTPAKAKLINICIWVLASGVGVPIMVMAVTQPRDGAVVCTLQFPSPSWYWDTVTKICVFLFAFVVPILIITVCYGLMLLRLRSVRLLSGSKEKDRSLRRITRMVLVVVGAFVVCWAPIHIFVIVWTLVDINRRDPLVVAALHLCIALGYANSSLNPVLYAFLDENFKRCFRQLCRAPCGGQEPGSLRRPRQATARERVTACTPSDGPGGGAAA
Procedure: Rat Brain Membranes were Used as a Receptor Preparation.
^3H-DPDPE ([D-Pen^2,D-Pen^5]-Enkephalin) was used as ^3H-labeled ligand.
Binding reaction using the ^3H-labeled ligand was carried out by the following method.
Preparation of Receptor Membranes:
Rat brain was homogenized in 50 mM Tris-HCl buffer (pH 7.4) containing 10 mM MgCl2 and 1 mM EDTA, and centrifuged at 48,000×g for 20 min, and the precipitate was washed once with Tris-HCl buffer. The washed precipitate was suspended in 50 mM Tris-HCl buffer (pH 7.4) containing 10 mM MgCl2 and 1 mM EDTA, to obtain a membrane preparation.
Delta Opioid Receptor Binding Test:
The membrane preparation (1 mg protein/ml), H-DPDPE (1.5 nM) and a test drug were reacted at 25° C. for 70 minutes. After completion of the reaction, the reaction mixture was filtered by suction through a glass filter (GF/B) treated with 0.3% polyethylene imine, and the glass filter was washed three times with 50 mM Tris-HCl buffer (pH 7.4) containing 10 mM MgCl2 and 1 mM EDTA. After the washing, scintillation cocktail was added to the filters, and the radioactivity of the filter was measured in a liquid scintillation counter.
The amount of ^3H-DPDPE bound when the reaction was carried out in the presence of 10 μM naltrindole was taken as the degree of nonspecific binding of ^3H-DPDPE, and the difference between the total degree of ^3H-DPDPE binding and the degree of nonspecific ^3H-DPDPE binding was taken as the degree of specific ^3H-DPDPE binding. An inhibition curve was obtained by reacting a definite concentration (1.5 nM) of ^3H-DPDPE with various concentrations of each test drug under the conditions described above. A concentration of the test drug at which binding of ^3H-DPDPE is inhibited by 50% (IC50) was determined from the inhibition curve.
For `Cc1nc(N2CCC(CC(=O)O)CC2)c2c(C)c(C)n(-c3c(C)cc(Br)cc3C)c2n1` [Compound 1-001, {1-[7-(4-bromo-2,6-dimethyl-phenyl)-2,5,6-trimethyl-7H-pyrrolo[2,3-d]pyrimidin-4-yl]-piperidin-4-yl}-acetic acid], the IC50 was at most 500 nM.
`Cc1nc(N2CCC(CC(=O)O)CC2)c2c(C)cn(-c3c(C)cc(Br)cc3C)c2n1` [Compound 1-002, {1-[7-(4-bromo-2,6-dimethyl-phenyl)-2,5-dimethyl-7H-pyrrolo[2,3-d]pyrimidin-4-yl]-piperidin-4-yl}-acetic acid] showed an IC50 of at most 500 nM.
For `Cc1cc(N2CCC(CC(=O)O)CC2)c2c(C)c(C)n(-c3c(C)cc(Br)cc3C)c2n1` [Compound 1-003, {1-[1-(4-bromo-2,6-dimethyl-phenyl)-2,3,6-trimethyl-1H-pyrrolo[2,3-b]pyridin-4-yl]-piperidin-4-yl}-acetic acid], the IC50 was at most 500 nM.
For `Cc1cc(N2CCC(CC(=O)O)CC2)c2c(C)cn(-c3c(C)cc(Br)cc3C)c2n1` [Compound 1-004, {1-[1-(4-bromo-2,6-dimethyl-phenyl)-3,6-dimethyl-1H-pyrrolo[2,3-b]pyridin-4-yl]-piperidin-4-yl}-acetic acid], the IC50 was at most 500 nM.
Compound `Cc1cc(N2CCC(CC(=O)O)CC2)c2c(C)c(C)n(-c3c(C)cc(Cl)cc3C)c2n1` [Compound 1-005, {1-[1-(4-chloro-2,6-dimethyl-phenyl)-2,3,6-trimethyl-1H-pyrrolo[2,3-b]pyridin-4-yl]-piperidin-4-yl}-acetic acid] has an IC50 of at most 500 nM.
With `Cc1cc(N2CCC(CC(=O)O)CC2)c2c(C)cn(-c3c(C)cc(Cl)cc3C)c2n1` [Compound 1-006, {1-[1-(4-chloro-2,6-dimethyl-phenyl)-3,6-dimethyl-1H-pyrrolo[2,3-b]pyridin-4-yl]-piperidin-4-yl}-acetic acid] the IC50 was at most 500 nM.
With `Cc1cc(N2CCC(CC(=O)O)CC2)c2c(C)cn(-c3c(Cl)cc(Cl)cc3Cl)c2n1` [Compound 1-011, {1-[3,6-dimethyl-1-(2,4,6-trichloro-phenyl)-1H-pyrrolo[2,3-b]pyridin-4-yl]-piperidin-4-yl}-acetic acid] the IC50 was at most 500 nM.
In the case of `Cc1cc(N2CCC(CC(=O)O)CC2)c2c(C)cn(-c3c(Br)cc(Cl)cc3Br)c2n1` [Compound 1-012, {1-[1-(2,6-dibromo-4-chloro-phenyl)-3,6-dimethyl-1H-pyrrolo[2,3-b]pyridin-4-yl]-piperidin-4-yl}-acetic acid], the IC50 is reported as at most 500 nM.
Compound `Cc1cc(N2CCC(CC(=O)O)CC2)c2c(C)cn(-c3ccc(Br)cc3Br)c2n1` [Compound 1-016, {1-[1-(2,4-dibromo-phenyl)-3,6-dimethyl-1H-pyrrolo[2,3-b]pyridin-4-yl]-piperidin-4-yl}-acetic acid] has an IC50 of at most 500 nM.
In the case of `Cc1nc(N2CCC(CCC(=O)O)CC2)c2c(C)cn(-c3c(C)cc(Br)cc3C)c2n1` [Compound 1-018, 3-{1-[7-(4-bromo-2,6-dimethyl-phenyl)-2,5-dimethyl-7H-pyrrolo[2,3-d]pyrimidin-4-yl]-piperidin-4-yl}-propionic acid], the IC50 is reported as at most 500 nM.
Compound `Cc1cc(N2CCC(CCC(=O)O)CC2)c2c(C)c(C)n(-c3c(C)cc(Br)cc3C)c2n1` [Compound 1-019, 3-{1-[1-(4-bromo-2,6-dimethyl-phenyl)-2,3,6-trimethyl-1H-pyrrolo[2,3-b]pyridin-4-yl]-piperidin-4-yl}-propionic acid] has an IC50 of at most 500 nM.
Work on `Cc1cc(N2CCC(CCC(=O)O)CC2)c2c(C)cn(-c3c(C)cc(Br)cc3C)c2n1` [Compound 1-020, 3-{1-[1-(4-bromo-2,6-dimethyl-phenyl)-3,6-dimethyl-1H-pyrrolo[2,3-b]pyridin-4-yl]-piperidin-4-yl}-propionic acid] yielded an IC50 of at most 500 nM.
For `Cc1cc(N2CCC(CCC(=O)O)CC2)c2c(C)c(C)n(-c3c(C)cc(Cl)cc3C)c2n1` [Compound 1-021, 3-{1-[1-(4-chloro-2,6-dimethyl-phenyl)-2,3,6-trimethyl-1H-pyrrolo[2,3-b]pyridin-4-yl]-piperidin-4-yl}-propionic acid], the IC50 was at most 500 nM.
In the case of `Cc1cc(N2CCC(CCC(=O)O)CC2)c2c(C)cn(-c3c(C)cc(Cl)cc3C)c2n1` [Compound 1-022, 3-{1-[1-(4-chloro-2,6-dimethyl-phenyl)-3,6-dimethyl-1H-pyrrolo[2,3-b]pyridin-4-yl]-piperidin-4-yl}-propionic acid], the IC50 is reported as at most 500 nM.
Work on `Cc1cc(N2CCC(CCC(=O)O)CC2)c2c(C)cn(-c3c(Cl)cc(Br)cc3Cl)c2n1` [Compound 1-025, 3-{1-[1-(4-bromo-2,6-dichloro-phenyl)-3,6-dimethyl-1H-pyrrolo[2,3-b]pyridin-4-yl]-piperidin-4-yl}-propionic acid] yielded an IC50 of at most 500 nM.
With `Cc1cc(N2CCC(CCC(=O)O)CC2)c2c(C)cn(-c3c(Cl)cc(Cl)cc3Cl)c2n1` [Compound 1-026, 3-{1-[3,6-dimethyl-1-(2,4,6-trichloro-phenyl)-1H-pyrrolo[2,3-b]pyridin-4-yl]piperidin-4-yl}-propionic acid] the IC50 was at most 500 nM.
In the case of `Cc1cc(N2CCC(CCC(=O)O)CC2)c2c(C)cn(-c3c(Br)cc(Cl)cc3Br)c2n1` [Compound 1-027, 3-{1-[1-(2,6-dibromo-4-chloro-phenyl)-3,6-dimethyl-1H-pyrrolo[2,3-b]pyridin-4-yl]-piperidin-4-yl}-propionic acid], the IC50 is reported as at most 500 nM.
`Cc1cc(N2CCC(CCCC(=O)O)CC2)c2c(C)c(C)n(-c3c(C)cc(Br)cc3C)c2n1` [Compound 1-032, 4-{1-[1-(4-bromo-2,6-dimethyl-phenyl)-2,3,6-trimethyl-1H-pyrrolo[2,3-b]pyridin-4-yl]-piperidin-4-yl}-butyric acid] showed an IC50 of at most 500 nM.
Compound `Cc1cc(N2CCC(CP(=O)(O)O)CC2)c2c(C)cn(-c3c(C)cc(Br)cc3C)c2n1` [Compound 1-045, {1-[1-(4-bromo-2,6-dimethyl-phenyl)-3,6-dimethyl-1H-pyrrolo[2,3-b]pyridin-4-yl]-piperidin-4-ylmethyl}-phosphonic acid] has an IC50 of at most 500 nM.
Compound `Cc1cc(N2CCC(CS(=O)(=O)O)CC2)c2c(C)cn(-c3c(C)cc(Br)cc3C)c2n1` [Compound 1-047, {1-[1-(4-bromo-2,6-dimethyl-phenyl)-3,6-dimethyl-1H-pyrrolo[2,3-b]pyridin-4-yl]-piperidin-4-yl}-methanesulfonic acid] has an IC50 of at most 500 nM.
For `Cc1cc(N2CCC(CCS(=O)(=O)O)CC2)c2c(C)cn(-c3c(C)cc(Br)cc3C)c2n1` [Compound 1-048, 2-{1-[1-(4-bromo-2,6-dimethyl-phenyl)-3,6-dimethyl-1H-pyrrolo[2,3-b]pyridin-4-yl]-piperidin-4-yl}-ethanesulfonic acid], the IC50 was at most 500 nM.
